{"source": "patent US5021551A", "about": "“Method of enhancing peptide immunogenicity” (Washington University, priority 1989, dated 1991)", "type_in_all_cases": "cell-based", "key": {"[1]": {"system": "A6.A2 T cell hybridoma (HEL (34-45) specific)", "assay": "T cell stimulation assay, A6.A2 hybridoma, fixed TA3 antigen-presenting cells", "conditions": "FIG. 2", "description": "(§1) FIG. 2a and 2b are graphical representation which show the stimulation of two T cell hybridomas, A6.A2 ([…]) and 18N.30 ([…]), that react with a modified T cell immunogenic peptide 34-45NH.sbsb.2 ( ) in another embodiment of the invention compared to normal peptide HEL (34-45) ( ). The assay was performed as described hereinafter in Materials and Methods of the Examples except fixed TA3 cells were used as the source of antigen-presenting cell.\n(§2) The level of T cell stimulation was determined as previously described in detail by Allen and Unanue, J. Immunol. 132, 1077 (1984). In general, the level of T cell stimulation was determined by quantitating the amount of IL-2 produced by the T cell hybridomas. IL-2 was bioassayed by determining the level of ^3 H-Thymidine incorporation of the IL-2 dependent cell line, CTLL, 24 hours after culture in the test culture media. The source of antigen presenting cells were either peptone elicited peritoneal macrophages from CBA/J mice previously infected with Listeria monocytogenes or the B cell hybridoma, TA3 [Allen and Unanue, Id.; Allen et al, Proc. Natl. Acad. Sci. USA 81, 2489 (1984)]. […]\n(§3) It was also determined whether the changes that enhanced the immunogenicity of HEL (52-61) could be extrapolated to another peptide of HEL which had been previously studied, namely the peptide comprising residues 34-45 [Allen et al, Immun. […]"}, "[2]": {"system": "18N.30 T cell hybridoma (HEL (34-45) specific)", "assay": "T cell stimulation assay, 18N.30 hybridoma, fixed TA3 antigen-presenting cells", "conditions": "FIG. 2", "description": "as §1, §2, §3"}, "[3]": {"system": "3A9 T cell hybridoma (HEL(52-61) specific)", "assay": "T cell stimulation assay (IL-2 release, CTLL bioassay), 3A9 hybridoma", "description": "(§4) The level of T cell stimulation was determined as previously described in detail by Allen and Unanue, J. Immunol. 132, 1077 (1984). In general, the level of T cell stimulation was determined by quantitating the amount of IL-2 produced by the T cell hybridomas. IL-2 was bioassayed by determining the level of ^3 H-Thymidine incorporation of the IL-2 dependent cell line, CTLL, 24 hours after culture in the test culture media. The source of antigen presenting cells were either peptone elicited peritoneal macrophages from CBA/J mice previously infected with Listeria monocytogenes or the B cell hybridoma, TA3 [Allen and Unanue, Id.; Allen et al, Proc. Natl. Acad. Sci. USA 81, 2489 (1984)]. Both sources of antigen presenting cells were fixed with paraformaldehyde prior to exposure to antigen.\n(§5) The relative stimulatory capacity of derivatives of HEL (52-61) are shown. The relative stimulatory capacity of a peptide was determined by the relative shift in the concentration of antigen required for a 50% maximal response. For example, 300 fold less ^- 52-61^+. was required for a 50% maximal response than 52-61 with 3A9 T cells. The stimulation of 3A9 and 2All, two HEL (46-61) specific T cells, was determined as described in Materials and Methods. This test was performed three times, with identical results. A representative test is shown."}, "[4]": {"system": "2A11 T cell hybridoma (HEL(52-61) specific)", "assay": "T cell stimulation assay (IL-2 release, CTLL bioassay), 2A11 hybridoma", "conditions": "relative shift in antigen concentration required for 50% maximal response; 52-61 = 1", "description": "as §4, §5"}}, "note": "Entries after “also recorded” stand apart in the source; their conditions may differ. Peptide text beside a SMILES is read from it."}
{"smiles": "C[C@H](NC(=O)[C@H](CCC(N)=O)NC(=O)[C@@H](NC(=O)[C@H](CC(N)=O)NC(=O)[C@H](Cc1ccccc1)NC(=O)[C@H](CC(N)=O)NC(=O)[C@H](CO)NC(=O)[C@H](CCC(=O)O)NC(=O)[C@@H](N)Cc1ccccc1)[C@@H](C)O)C(=O)N[C@H](C(=O)N[C@@H](CC(N)=O)C(=O)N[C@@H](CCCNC(=N)N)C(N)=O)[C@@H](C)O", "note": "[HEL (34-45) with a C terminal amide] (H-FESNFNTQATNR-NH2)", "values": [{"measurement": "increase in response of A6.A2 compared to unmodified HEL (34-45)", "setting": "[1]", "value": 50, "unit": "fold"}, {"measurement": "increase in response of 18N.30 compared to unmodified HEL (34-45)", "setting": "[2]", "value": 250, "unit": "fold"}]}
{"smiles": "CC[C@H](C)[C@H](NC(=O)CNC(=O)[C@H](Cc1ccc(O)cc1)NC(=O)[C@H](CC(=O)O)NC(=O)[C@@H](N)CCCCN)C(=O)N[C@@H](CC(C)C)C(=O)N[C@@H](CCC(N)=O)C(=O)N[C@H](C(=O)N[C@@H](CC(N)=O)C(=O)N[C@@H](CO)C(=O)N[C@@H](CCCNC(=N)N)C(=O)N[C@@H](CCC(=O)O)C(=O)O)[C@@H](C)CC", "note": "[^+- 52-61^-+] (H-KDYGILQINSRE-OH)", "values": [{"measurement": "stimulatory ability, 3A9 T cell (in words)", "setting": "[3]; qualitative comparison", "value": "drastically reduced; also recorded: less active than HEL (52-61)"}, {"measurement": "Relative Stimulatory Capacity, T Cell 3A9", "setting": "[3]; relative shift in antigen concentration required for 50% maximal response, 52-61 = 1", "value": 0.3}, {"measurement": "Relative Stimulatory Capacity, T Cell 2A11", "setting": "[4]", "value": 10}]}
